# Key:
# [1] = Drug release from hydrogels, with diffusion model fitting; type: physicochemical; conditions: for Average drug release (last 30 min), normalized amount: released from purified mono-PEGylated albumin hydrogels (10 kDa PEG), insulins fluorescein-labelled, FIG. 5
# Experimental: Both LEVEMIR® and […]® were fluorescently labelled by 5 mg/ml NHS-fluorescein (Pierce, Illinois, U.S.A.) in DMSO, with a molar ratio of 15:1 NHS-fluorescein to insulin. The solution was allowed to react for 5 hr in 4° C. and dialysed (Cellu-Sep H1, 1-kDaMW cutoff, Texas, U.S.A.) against PBS with 0.1% (w/v) of sodium azide with DMSO in decreasing concentrations of DMSO (10-0%) for 1 week.
# The drug was saturated in disk-shaped hydrogel constructs prepared from PEG-DA or PEGylated proteins, that were formed into hydrogels by photopolymerization using 0.1% (w/v) Irgacure™ 2959 (Ciba Specialty Chemicals, Basel, Switzerland) and UV light (λ=365 nm, 4-5 mW/cm^2) exposure for 5 min as described elsewhere (Gonen-Wadmany et al., 2007). The hydrogel constructs were produced from six different hydrogel precursor solutions, including: (i) purified mono-PEGylated albumin in PEG-DA; (ii) non-purified mono-PEGylated albumin (containing wild-type and multi-PEGylated albumin) in PEG-DA; (iii) multi-PEGylated albumin in PEG-DA; (iv) wild-type albumin in PEG-DA; (v) PEG-DA; (vi) PEGylated fibrinogen in PEG-DA. In all cases, the protein (albumin or fibrinogen) concentration was 8.5 mg/ml, and the PEG-DA was added to reach a total PEG concentration of 7%.
# Drug release from the hydrogel constructs into the supernatant was measured fluorescently (excitation at […]) in PBS with 0.1% (w/v) of sodium azide under constant agitation at 37° C. using a Varioscan plate-reader (Thermo Electron Corporation, Finland). (In the case of degradation experiments, 0.01 mg/ml of Trypsin (MP Biomedicals) was added to the PBS solution.) The raw data was normalized by the fluorescence intensity measured after 24 hours. The constructs were liquefied by homogenization or sonication (for multi-PEGylated albumin and fibrinogen), or by chemical means using 0.1 M NaOH, and the drug content was quantified to confirm complete drug release.
# The drug release profiles were compared with a known model of diffusion-based release kinetics. […]
# serum albumin = serum albumin (Homo sapiens, UniProt P02768); conditions: cited from earlier work
# [2] = Warfarin fluorescence and albumin binding; conditions: for Fluorescence Intensity Ratio Comparing to Warfarin Alone: 5 mg/ml protein in PBS, 10:1 molar ratio albumin to Warfarin, ~5 hours incubation, excitation 320 nm, emission 385 nm, n = 6
# Experimental: The mixture was incubated for ˜5 hours before reading fluorescence emission (λ=385 nm) at a 320 nm excitation wavelength using a Varioscan spectral scanning multimode reader (Thermo Electron Corporation, Vantaa, Finland).
# [3] = Equilibrium dialysis of Warfarin with wild-type or PEGylated albumin; type: binding; conditions: result in words; for affinity of Warfarin to the protein by equilibrium dialysis: equilibrium at about 24 hr, compared to wild-type albumin
# Experimental: The two chambers of the device were separated by a dialysis membrane (12-14 kDa MW cutoff) and drug diffusion was measured by fluorescence spectroscopy. One dialysis chamber of the device was filled with 25 ml PBS solution containing 0.1% (w/v) of sodium azide (Fluka).
Compound,Fluorescence Intensity Ratio Comparing to Warfarin Alone [2],"Average drug release (last 30 min), normalized amount [1]",affinity of Warfarin to the protein by equilibrium dialysis [3],other results
COc1ccc2cc([C@H](C)C(=O)O)ccc2c1 [Naproxen],,0.66±0.07,,"release kinetics of drugs compared ([1]; from purified mono-PEGylated albumin hydrogels (10 kDa PEG), p-value<0.05): released significantly faster"
"ACTRAPID®: regular human insulin formulation, 100 IU/ml, Novo Nordisk; no binding affinity to serum albumin",,0.57±0.14,,binding affinity to serum albumin (serum albumin): no binding affinity
"PEG-Alb 10 kDa: bovine serum albumin multi-PEGylated with linear 10 kDa PEG-DA, in solution",1.5 ± 0.5,,,

# The next lines start with results.
Fluorescence Intensity Ratio Comparing to Warfarin Alone [2],Compound,"Average drug release (last 30 min), normalized amount [1]",affinity of Warfarin to the protein by equilibrium dialysis [3],other results
2.8 ± 0.2,"Albumin: bovine serum albumin (MP Biomedicals), non-PEGylated control in solution",,,"increase in Warfarin fluorescence when bound to albumin ([2]; bovine albumin, versus unbound Warfarin): 2.8 fold; percent of drug (Warfarin) transported through the dialysis membrane at equilibrium ([3]; about 24 hr, albumin to Warfarin 5:1, room temperature): lowest"
1.6 ± 0.3,"PEG-Alb 1.5 kDa: bovine serum albumin multi-PEGylated with linear 1.5 kDa PEG-DA, in solution",,significantly less affinity,
1.5 ± 0.4,"PEG-Alb 4 kDa: bovine serum albumin multi-PEGylated with linear 4 kDa PEG-DA, in solution",,significantly less affinity,
